Patent publication US20240181022A1, “AMURINS LYSINS, AND LYSIN-ANTIMICROBIAL PEPTIDE (AMP) CONSTRUCTS ACTIVE AGAINST GRAM-NEGATIVE BACTERIA” (priority 2021, published 2024)
≈ marks a conversion by molar mass, not a printed value. Where a SMILES comes first, the peptide text is derived from it. [ ]: non-standard residue; d: D form.

How the values were obtained:
Mycobacterium species = type: cell-based
M. fortuitum = assay: MIC against M. fortuitum; type: cell-based, Mycobacterium fortuitum; conditions: M. fortuitum (ATCC 6841); CAAT media
M. avium = assay: MIC against M. avium; type: cell-based, Mycobacterium avium; conditions: M. avium (ATCC 700898); CAAT media
M. scrofulaceum = assay: MIC against M. scrofulaceum; type: cell-based, Mycobacterium scrofulaceum; conditions: M. scrofulaceum (ATCC 19981); CAAT media
A. ruhlandii [1] = assay: MIC by broth microdilution against A. ruhlandii; type: cell-based, Achromobacter ruhlandii; conditions: A. ruhlandii isolates
Description: (§1) MIC values were determined using a modification of the standard broth microdilution reference method defined by the Clinical and Laboratory Standards Institute (CLSI), CLSL. 2015. Methods for Dilution Antimicrobial Susceptibility Tests for Bacteria That Grow Aerobically; Approved Standard-10th Edition. Clinical and Laboratory Standards Institute, Wayne, PA. The modification was based on the replacement of Mueller Hinton Broth with either CAA media (with and without NaCl) or CAA supplemented with 2.5% human serum. MIC is the minimum concentration of peptide sufficient to suppress at least 80% of the bacterial growth compared to control.
(§2) Based on these nine most prevalent strains, direct lytic agents, including GN370, AM1, AM2, and AM3, were evaluated against various isolates from each of the 9 strains. MICs and MBECs (Example 3) were determined, and a sputum inhibition test was conducted, as described below in Example 5.
(§3) The MICs for were determined as described below using the broth microdilution method for meropenem, GN370, AM1, AM2, and AM3. The results are shown below in Tables 8-12.

B. gladioli [2] = assay: MIC by broth microdilution against B. gladioli; type: cell-based, Burkholderia gladioli; conditions: B. gladioli isolates
Description: as §1, §2, §3

A. xylosoxidans [3] = tested on: A. xylosoxidans
Description: (§4) Biofilms are then washed and treated with e.g., a 2-fold dilution series of the lysin in TSBg at e.g., 37° C. for 24 hours. After treatment, wells are washed, air-dried at e.g., 37° C. and stained with e.g., 0.05% crystal violet for 10 minutes.
(§5) The antibiofilm activity of GN370, AM1, AM2, and AM3 was evaluated against various Gram-negative bacteria prevalent in cystic fibrosis patients, including P. aeruginosa, S. maltophilia, and A. xylosoxidans.
(§6) The MBEC (after 2-hour treatments) was determined as described in Jones and Wozniak, PsI Produced by Mucoid Pseudomonas aeruginosa Contributes to the Establishment of Biofilms and Immune Evasion, Am. […] Microbiol.

B. multivorans = tested on: B. multivorans
Description: as §4, §5, §6

S. maltophilia [4] = tested on: S. maltophilia
Description: as §4, §5, §6

P. aeruginosa [5] = assay: Time-kill assay in cystic fibrosis patient sputum, P. aeruginosa; type: cell-based, Pseudomonas aeruginosa
Source text: (§7) Sputum from 5 cystic fibrosis patients was pooled. The resulting mixture was not filtered, as it was very dense and not amenable to sterilization by filtration. Sputum is known to be a complex mixture of DNA, carbohydrates, and lipids ([…], 2016). As used herein, the term “sputum” refers to the mucus present in the respiratory tract of an animal, such as a human. Sputum may increase in thickness due to the irritation or infection, including bacterial infection, and in some instances, may be expelled by the animal while coughing. In certain instances, cystic fibrosis may be characterized by the presence of a thick, sticky mucus or sputum present in the lungs of cystic fibrosis patients. The activity of GN370, AM1, AM2, AM3, and meropenem was determined in the sputum using a time-kill assay format as disclosed in Zhang et al., Antimicrobial peptide therapeutics for cystic fibrosis, Antimicrobial Agents Chemother. 2005; 49(7):2921-2927. […] Untreated controls were included in addition to pretreatment plating (t=0) for a baseline CFU determination. Activity was also determined in the absence of sputum for comparison to activity observed in the presence of sputum.

A. xylosoxidans [6] = assay: Time-kill assay in cystic fibrosis patient sputum, A. xylosoxidans; type: cell-based, Achromobacter xylosoxidans
Source text: as §7

P. aeruginosa [7] = assay: Serial passage resistance development study, P. aeruginosa; type: cell-based, Pseudomonas aeruginosa; conditions: P. aeruginosa strain CFS 1292, Day 28
S. maltophilia [8] = assay: Serial passage resistance development study, S. maltophilia; type: cell-based, Stenotrophomonas maltophilia; conditions: S. maltophilia, day 28, triplicate
A. ruhlandii [9] = type: cell-based, Achromobacter ruhlandii
Description: (§8) The MBEC (after 2-hour treatments) was determined as described in Jones and Wozniak, PsI Produced by Mucoid Pseudomonas aeruginosa Contributes to the Establishment of Biofilms and Immune Evasion, Am. Soc. Microbiol. 2017, 8(3):e00864-17. Meropenem and tobramycin were included as controls and were both poorly active, with MBEC90 values of >256 μg/mL (data not shown).

A. dolens = type: cell-based, Achromobacter dolens
Description: as §8

B. gladioli [10] = type: cell-based, Burkholderia gladioli; conditions: B. gladioli (15); 2-hour treatment
Description: as §8

P. aeruginosa [11] = tested on: P. aeruginosa

## CC[C@H](C)[C@H](NC(=O)[C@@H](CCCNC(=N)N)NC(=O)[C@H](Cc1ccccc1)NC(=O)CNC(=O)CNC(=O)[C@@H](CCCNC(=N)N)NC(=O)[C@H](CCSC)NC(=O)[C@@H]1CCCN1C(=O)[C@@H](CCCNC(=N)N)NC(=O)[C@H](C)NC(=O)[C@@H](CCCNC(=N)N)NC(=O)[C@H](CC(C)C)NC(=O)[C@H](CC(N)=O)NC(=O)[C@@H](CCCNC(=N)N)NC(=O)[C@@H](CCCCN)NC(=O)[C@@H](CCCCN)NC(=O)[C@@H](NC(=O)[C@H](CC(N)=O)NC(=O)[C@@H](NC(=O)[C@H](C)NC(=O)CNC(=O)[C@@H](CCCNC(=N)N)NC(=O)[C@@H](NC(=O)[C@H](Cc1ccccc1)NC(=O)[C@@H](NC(=O)[C@@H](CCCCN)NC(=O)[C@@H](CCCNC(=N)N)NC(=O)[C@H](CO)NC(=O)[C@@H](CCCCN)NC(=O)[C@@H](CCCCN)NC(=O)[C@@H](CCCCN)NC(=O)[C@H](CO)NC(=O)[C@H](CC(C)C)NC(=O)[C@@H](CCCCN)NC(=O)[C@@H](CCCNC(=N)N)NC(=O)[C@@H](CCCNC(=N)N)NC(=O)[C@@H](CCCCN)NC(=O)[C@@H](N)CCSC)[C@@H](C)CC)[C@@H](C)O)C(C)C)C(C)C)C(=O)O [AM3] (H-M[dK][dR][dR][dK]LS[dK][dK][dK]S[dR][dK]IFT[dR]GAVNV[dK][dK][dR]NL[dR]A[dR]PM[dR]GGF[dR]I-OH; N-terminus and C-terminus assumed)
Mycobacterium species
  activity (MIC) against Mycobacterium species: highest activity
M. fortuitum
  MIC: 2 µg/mL (≈ 0.438 µM)
M. avium
  MIC: 1 Tg/mL
M. scrofulaceum
  MIC: 2 µg/mL (≈ 0.438 µM)
A. ruhlandii [1]
  MIC50: 1 µg/mL (≈ 0.219 µM)
  MIC90: > 128 µg/mL
B. gladioli [2]
  MIC50: 32 µg/mL (≈ 7 µM)
  MIC90: 128 µg/mL (≈ 28 µM)
A. xylosoxidans [3]
  MBEC50: 1 µg/mL
  MBEC90: 2 µg/mL
  MBEC Range: 0.125 to 4 µg/mL
A. xylosoxidans [3]; 2-hour treatments
  antibiofilm activity (MBEC) against A. xylosoxidans: primarily active
B. multivorans
  MBEC50: 2 µg/mL
  MBEC90: 4 µg/mL
  MBEC Range: 1 to 8 µg/mL
S. maltophilia [4]
  MBEC50: 1 µg/mL
  MBEC90: 2 µg/mL
  MBEC Range: 0.125 to 16 µg/mL
P. aeruginosa [5]; 10% CF sputum vs no sputum
  effect of sputum on antibacterial activity: not inhibited
P. aeruginosa [5]; absence of sputum, 1 hr
  Log10 CFU/mL of sputum: 2.3 Log10 CFU/mL of sputum
P. aeruginosa [5]; absence of sputum, 3 hr
  Log10 CFU/mL of sputum: 2.3 Log10 CFU/mL of sputum
P. aeruginosa [5]; absence of sputum, 24 hr
  Log10 CFU/mL of sputum: 2.3 Log10 CFU/mL of sputum
P. aeruginosa [5]; presence of 10% sputum, 1 hr
  Log10 CFU/mL of sputum: 2.3 Log10 CFU/mL of sputum
P. aeruginosa [5]; presence of 10% sputum, 3 hr
  Log10 CFU/mL of sputum: 2.3 Log10 CFU/mL of sputum
P. aeruginosa [5]; presence of 10% sputum, 24 hr
  Log10 CFU/mL of sputum: 2.3 Log10 CFU/mL of sputum
P. aeruginosa [5]; time-kill
  killing by 1 hour, maintained by 24 hours: complete killing
A. xylosoxidans [6]; 10% CF sputum vs no sputum
  effect of sputum on antibacterial activity: none of GN370, AM1, AM2, and AM3 was inhibited
A. xylosoxidans [6]; absence of sputum, 1 hr
  Log10 CFU/mL of sputum: 4.3 Log10 CFU/mL of sputum
A. xylosoxidans [6]; absence of sputum, 3 hr
  Log10 CFU/mL of sputum: 3.3 Log10 CFU/mL of sputum
A. xylosoxidans [6]; absence of sputum, 24 hr
  Log10 CFU/mL of sputum: 2.3 Log10 CFU/mL of sputum
A. xylosoxidans [6]; presence of 10% sputum, 1 hr
  Log10 CFU/mL of sputum: 2.3 Log10 CFU/mL of sputum
A. xylosoxidans [6]; presence of 10% sputum, 3 hr
  Log10 CFU/mL of sputum: 2.3 Log10 CFU/mL of sputum
A. xylosoxidans [6]; presence of 10% sputum, 24 hr
  Log10 CFU/mL of sputum: 2.3 Log10 CFU/mL of sputum
A. xylosoxidans [6]; time-kill
  killing by 1 hour, maintained at 24 hours: complete killing
P. aeruginosa [7]
  change in MIC over serial passage: no significant changes
S. maltophilia [8]
  change in MIC over serial passage: no increase in MIC
A. ruhlandii [9]
  MBEC50: 16 µg/mL
  MBEC90: 16 µg/mL
  MBEC Range: 1 to 32 µg/mL
A. dolens
  MBEC50: 2 µg/mL
  MBEC90: 16 µg/mL
  MBEC Range: 1 to 32 µg/mL
B. gladioli [10]
  MBEC50: 4 µg/mL
  MBEC90: 16 µg/mL
P. aeruginosa [11]
  MBEC50: 0.125 µg/mL
  MBEC90: 1 µg/mL
  MBEC Range: 0.016 to 1 µg/mL
P. aeruginosa [11]; 2-hour treatments
  antibiofilm activity (MBEC) against P. aeruginosa: primarily active
